# Experimental data reported in article PMC8893300, “A Dynamic Mass Redistribution Assay for the Human Sweet Taste Receptor Uncovers G-Protein Dependent Biased Ligands” (Frontiers in Pharmacology, 2022).
# Where two headings read alike, the source gives them in different places. Marks after values point to notes of the source that are not given here.
# Target: T1, human sweet taste receptor (hT1R2/hT1R3) (Homo sapiens, UniProt Q7RTX0+Q8TE23)
# T1 construct: expressed in transfected cells
# T1 sequence (Q8TE23 20-839): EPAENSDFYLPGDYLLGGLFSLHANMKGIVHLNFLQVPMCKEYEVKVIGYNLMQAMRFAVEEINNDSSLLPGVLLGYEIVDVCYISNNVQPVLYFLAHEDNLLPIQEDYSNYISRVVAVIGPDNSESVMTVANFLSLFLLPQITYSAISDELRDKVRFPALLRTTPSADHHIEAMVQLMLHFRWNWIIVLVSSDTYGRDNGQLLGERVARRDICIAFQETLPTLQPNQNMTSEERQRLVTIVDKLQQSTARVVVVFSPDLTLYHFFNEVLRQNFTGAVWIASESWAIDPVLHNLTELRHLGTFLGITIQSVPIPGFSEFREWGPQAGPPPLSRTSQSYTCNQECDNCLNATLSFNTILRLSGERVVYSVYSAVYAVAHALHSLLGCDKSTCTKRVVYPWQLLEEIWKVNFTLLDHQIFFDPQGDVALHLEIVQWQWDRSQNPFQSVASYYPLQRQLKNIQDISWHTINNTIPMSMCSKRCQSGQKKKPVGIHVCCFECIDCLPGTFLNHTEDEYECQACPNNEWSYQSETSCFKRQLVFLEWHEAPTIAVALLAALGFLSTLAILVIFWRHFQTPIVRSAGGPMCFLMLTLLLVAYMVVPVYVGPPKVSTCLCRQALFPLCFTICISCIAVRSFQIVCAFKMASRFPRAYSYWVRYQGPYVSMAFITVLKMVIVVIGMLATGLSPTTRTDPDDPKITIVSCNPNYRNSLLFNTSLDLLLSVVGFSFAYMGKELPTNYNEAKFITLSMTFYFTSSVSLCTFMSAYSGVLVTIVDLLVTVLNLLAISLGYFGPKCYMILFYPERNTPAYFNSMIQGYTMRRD
# T1 sequence (Q7RTX0 21-852): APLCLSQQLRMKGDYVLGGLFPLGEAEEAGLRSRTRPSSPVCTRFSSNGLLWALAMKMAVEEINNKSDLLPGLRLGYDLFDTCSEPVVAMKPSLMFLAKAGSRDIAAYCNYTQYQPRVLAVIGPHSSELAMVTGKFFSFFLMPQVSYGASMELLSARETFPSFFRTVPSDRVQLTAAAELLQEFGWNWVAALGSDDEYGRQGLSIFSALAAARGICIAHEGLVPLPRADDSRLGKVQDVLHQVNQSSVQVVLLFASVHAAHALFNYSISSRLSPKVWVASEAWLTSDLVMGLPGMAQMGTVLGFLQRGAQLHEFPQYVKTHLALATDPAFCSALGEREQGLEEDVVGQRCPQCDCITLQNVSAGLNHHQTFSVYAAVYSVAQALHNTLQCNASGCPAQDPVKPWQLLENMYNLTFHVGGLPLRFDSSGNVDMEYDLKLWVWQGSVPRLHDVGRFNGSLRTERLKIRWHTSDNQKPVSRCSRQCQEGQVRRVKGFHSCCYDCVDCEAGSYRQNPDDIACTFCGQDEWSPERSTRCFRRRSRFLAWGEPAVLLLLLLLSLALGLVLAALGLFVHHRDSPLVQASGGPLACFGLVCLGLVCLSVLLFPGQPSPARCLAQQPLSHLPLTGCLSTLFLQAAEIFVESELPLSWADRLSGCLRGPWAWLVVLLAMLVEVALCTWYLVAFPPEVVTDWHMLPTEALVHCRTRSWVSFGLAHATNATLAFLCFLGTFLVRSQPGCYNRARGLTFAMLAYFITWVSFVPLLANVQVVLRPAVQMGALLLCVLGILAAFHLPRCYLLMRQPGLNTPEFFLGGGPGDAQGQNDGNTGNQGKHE
# Experiment: DMR assay (Epic reader) on R2/R3 U2OS cells, endogenous G proteins
# Assay type: cell-based
# Conditions: for EC50: R2/R3 U2OS cells, peak DMR response; for ΔlogR DMR Mean: Table 2, operational model, logR minus sucralose logR; for Activity in DMR assay Emax: top asymptote of dose-response normalized to 1 mM sucralose
# [1] = read-out: Activity in DMR assay EC50
# [2] = read-out: Activity in DMR assay pEC50 (converted)
EC50 [1] [nM],EC50 [2] [nM],ΔlogR DMR Mean,Activity in DMR assay Emax,SMILES
7700,7290,1.15,99*,COC(=O)[C@H](Cc1ccccc1)NC(=O)[C@H](CC(=O)O)NCCC(C)(C)C [Neotame]
700,637,2.52,143*,CC(C)Oc1ccc(NC(=S)NCc2ccc[nH]2)cc1 [S819]
2200,2070,1.84,128,CC(C)Oc1ccc(NC(=S)NCc2cccs2)cc1 [S5227]
